Data on one compound can be found in article PMC5218480 (PLoS ONE, 2017).

This assay relates to MV-4-11 cells. As to the kind of experiment: Gene expression microarray analysis (Affymetrix PrimeView) and GSEA. Type of assay: cell-based, human. Details: RFU PODN (11730768_x_at) / Fold change /veh PODN (11730768_x_at) / RFU LINC00158 (11744669_a_at) / Fold change /veh LINC00158 (11744669_a_at) / RFU DUSP10 (11751237_a_at) / Fold change /veh DUSP10 (11751237_a_at) / RFU ID3 (11757404_x_at) / Fold change /veh ID3 (11757404_x_at) / RFU PLEKHG5 (11737974_s_at) / Fold change /veh PLEKHG5 (11737974_s_at) / RFU LRRC4B (11730491_at) / Fold change /veh LRRC4B (11730491_at) / RFU GIMAP4 (11747438_a_at) / Fold change /veh GIMAP4 (11747438_a_at) / RFU KRT8 (11758183_x_at) / Fold change /veh KRT8 (11758183_x_at) / RFU CNN1 (11734310_a_at) / Fold change /veh CNN1 (11734310_a_at) / RFU VPS37D (11726825_at) / Fold change /veh VPS37D (11726825_at) / RFU C10orf10 (11716522_x_at) / Fold change /veh C10orf10 (11716522_x_at) / RFU KIR2DL2 /// KIR2DL4 /// KIR2DL5A /// KIR2DL5B /// KIR2DS1 /// KIR2DS2 /// KIR2DS3 /// KIR2DS4 /// KIR3DL3 /// KIR3DL3 /// KIR3DS1 (11738374_at) / Fold change /veh KIR2DL2 /// KIR2DL4 /// KIR2DL5A /// KIR2DL5B /// KIR2DS1 /// KIR2DS2 /// KIR2DS3 /// KIR2DS4 /// KIR3DL3 /// KIR3DL3 /// KIR3DS1 (11738374_at) / RFU C1QL1 (11718748_at) / Fold change /veh C1QL1 (11718748_at) / RFU TMPRSS4 (11747572_a_at) / Fold change /veh TMPRSS4 (11747572_a_at) / RFU HAMP (11756126_x_at) / Fold change /veh HAMP (11756126_x_at) / RFU RNFT2 (11725882_a_at) / Fold change /veh RNFT2 (11725882_a_at) / RFU NR4A2 (11747474_a_at) / Fold change /veh NR4A2 (11747474_a_at) / RFU ABCC12 (11746883_a_at) / Fold change /veh ABCC12 (11746883_a_at) / RFU TMEM136 (11760407_x_at) / Fold change /veh TMEM136 (11760407_x_at) / RFU CLDN22 /// WWC2 (11732394_at) / Fold change /veh CLDN22 /// WWC2 (11732394_at) / RFU HLA-DPB1 (11760878_x_at) / Fold change /veh HLA-DPB1 (11760878_x_at) / RFU SPINT1 (11716480_a_at) / Fold change /veh SPINT1 (11716480_a_at) / RFU GAP43 (11754022_s_at) / Fold change /veh GAP43 (11754022_s_at) / RFU A4GNT (11735810_at) / Fold change /veh A4GNT (11735810_at) / RFU PRB3 (11715151_x_at) / Fold change /veh PRB3 (11715151_x_at) / RFU TUBB4B (11761932_at) / Fold change /veh TUBB4B (11761932_at) / RFU CAPN14 (11732068_a_at) / Fold change /veh CAPN14 (11732068_a_at) / RFU TMCC2 (11721928_a_at) / Fold change /veh TMCC2 (11721928_a_at) / RFU IRGQ (11745062_a_at) / Fold change /veh IRGQ (11745062_a_at) / RFU FAM174B (11720279_a_at) / Fold change /veh FAM174B (11720279_a_at) / RFU TMPRSS4 (11748680_a_at) / Fold change /veh TMPRSS4 (11748680_a_at) / RFU FAM212B (11763350_a_at) / Fold change /veh FAM212B (11763350_a_at) / RFU PLEKHG5 (11743358_a_at) / Fold change /veh PLEKHG5 (11743358_a_at) / RFU ZSCAN30 (11745921_a_at) / Fold change /veh ZSCAN30 (11745921_a_at) / RFU CMKLR1 (11741424_a_at) / Fold change /veh CMKLR1 (11741424_a_at) / RFU LOC101060620 /// MAPK8IP1 (11723275_at) / Fold change /veh LOC101060620 /// MAPK8IP1 (11723275_at) / RFU SPTSSB (11747773_x_at) / Fold change /veh SPTSSB (11747773_x_at) / RFU PRSS12 (11739890_at) / Fold change /veh PRSS12 (11739890_at) / RFU BIN1 (11741810_x_at) / Fold change /veh BIN1 (11741810_x_at) / RFU WNT11 (11732464_a_at) / Fold change /veh WNT11 (11732464_a_at) / RFU C10orf10 (11716521_a_at) / Fold change /veh C10orf10 (11716521_a_at) / RFU C5orf56 (11738089_at) / Fold change /veh C5orf56 (11738089_at) / RFU CYB561 (11721691_x_at) / Fold change /veh CYB561 (11721691_x_at) / RFU ANKRD19P (11752326_a_at) / Fold change /veh ANKRD19P (11752326_a_at) / RFU OR2T12 /// OR2T33 /// OR2T8 (11738714_s_at) / Fold change /veh OR2T12 /// OR2T33 /// OR2T8 (11738714_s_at) / RFU VCAN (11748164_a_at) / Fold change /veh VCAN (11748164_a_at) / RFU JSRP1 (11732532_at) / Fold change /veh JSRP1 (11732532_at) / RFU KRTAP10-11 (11738290_x_at) / Fold change /veh KRTAP10-11 (11738290_x_at) / RFU MYO3A (11730013_a_at) / Fold change /veh MYO3A (11730013_a_at) / RFU EBF3 (11725865_a_at) / Fold change /veh EBF3 (11725865_a_at) / RFU CAMK2N1 (11719241_x_at) / Fold change /veh CAMK2N1 (11719241_x_at) / RFU C5orf56 (11738088_a_at) / Fold change /veh C5orf56 (11738088_a_at) / RFU OLFML3 (11715873_a_at) / Fold change /veh OLFML3 (11715873_a_at) / RFU LOC100653217 /// NTM (11731650_a_at) / Fold change /veh LOC100653217 /// NTM (11731650_a_at) / RFU MAPK11 (11762145_a_at) / Fold change /veh MAPK11 (11762145_a_at) / RFU FIZ1 (11724087_x_at) / Fold change /veh FIZ1 (11724087_x_at) / RFU OASL (11726364_x_at) / Fold change /veh OASL (11726364_x_at) / RFU SOX15 (11748057_x_at) / Fold change /veh SOX15 (11748057_x_at) / RFU CD79A (11719716_a_at) / Fold change /veh CD79A (11719716_a_at) / RFU HIST1H1D (11736915_at) / Fold change /veh HIST1H1D (11736915_at) / RFU CASKIN2 (11723855_a_at) / Fold change /veh CASKIN2 (11723855_a_at) / RFU LOC730098 (11760151_x_at) / Fold change /veh LOC730098 (11760151_x_at) / RFU OR4N2 (11742367_at) / Fold change /veh OR4N2 (11742367_at) / RFU PRRT2 (11749266_a_at) / Fold change /veh PRRT2 (11749266_a_at) / RFU SNX32 (11753110_a_at) / Fold change /veh SNX32 (11753110_a_at) / RFU CDHR5 (11726645_a_at) / Fold change /veh CDHR5 (11726645_a_at) / RFU RCAN1 (11760418_a_at) / Fold change /veh RCAN1 (11760418_a_at) / RFU FAM167A (11723789_a_at) / Fold change /veh FAM167A (11723789_a_at) / RFU FAM26E (11764081_at) / Fold change /veh FAM26E (11764081_at) / RFU ISYNA1 (11749810_s_at) / Fold change /veh ISYNA1 (11749810_s_at) / RFU ACY1 (11761880_at) / Fold change /veh ACY1 (11761880_at) / RFU 11764098_at / Fold change /veh 11764098_at / RFU SAMD14 (11745864_x_at) / Fold change /veh SAMD14 (11745864_x_at) / RFU NPB (11741838_a_at) / Fold change /veh NPB (11741838_a_at) / RFU TMPRSS6 (11731388_a_at) / Fold change /veh TMPRSS6 (11731388_a_at) / RFU KRTAP10-2 (11738614_at) / Fold change /veh KRTAP10-2 (11738614_at) / RFU ARHGAP8 /// PRR5-ARHGAP8 (11727945_x_at) / Fold change /veh ARHGAP8 /// PRR5-ARHGAP8 (11727945_x_at) / RFU KRTAP5-7 /// NADSYN1 (11734609_at) / Fold change /veh KRTAP5-7 /// NADSYN1 (11734609_at) / RFU RASL12 (11751679_a_at) / Fold change /veh RASL12 (11751679_a_at) / RFU CDKN2B (11736163_a_at) / Fold change /veh CDKN2B (11736163_a_at) / RFU PRF1 (11729649_at) / Fold change /veh PRF1 (11729649_at) / RFU, ZNF638 /// ZNF638-IT1 / Fold change vs veh, ZNF638 /// ZNF638-IT1 / RFU, PANK3 / Fold change vs veh, PANK3 / RFU, SH3YL1 / Fold change vs veh, SH3YL1 / RFU, ZEB2 / Fold change vs veh, ZEB2 / RFU, NRIP1 / Fold change vs veh, NRIP1 / RFU, PTTG1IP / Fold change vs veh, PTTG1IP / RFU, CAPN2 / Fold change vs veh, CAPN2 / RFU, MED14 / Fold change vs veh, MED14 / RFU, SNORA58 / Fold change vs veh, SNORA58 / RFU, C1orf63 / Fold change vs veh, C1orf63 / RFU, LRRFIP1 / Fold change vs veh, LRRFIP1 / RFU, NDUFAF7 / Fold change vs veh, NDUFAF7 / RFU, SLC12A2 / Fold change vs veh, SLC12A2 / RFU, IBTK / Fold change vs veh, IBTK / RFU, ESF1 / Fold change vs veh, ESF1 / Fold change vs veh, TMEM50B / RFU, TAOK1 / Fold change vs veh, TAOK1 / RFU, ACBD3 / Fold change vs veh, ACBD3 / RFU, TMA16 / Fold change vs veh, TMA16 / RFU, RWDD3 / Fold change vs veh, RWDD3 / RFU, BCAT1 / Fold change vs veh, BCAT1 / RFU, EDEM3 / Fold change vs veh, EDEM3 / RFU, TMEM33 / Fold change vs veh, TMEM33 / RFU, WDR75 / Fold change vs veh, WDR75 / RFU, AHCTF1 / Fold change vs veh, AHCTF1 / RFU, TFRC / Fold change vs veh, TFRC / RFU, ZDHHC17 / Fold change vs veh, ZDHHC17 / RFU, NOM1 / Fold change vs veh, NOM1 / RFU, ARL8B / Fold change vs veh, ARL8B / RFU, ZBTB11 / Fold change vs veh, ZBTB11 / RFU, TAMM41 / Fold change vs veh, TAMM41 / RFU, KIAA1704 /// LOC100996395 / Fold change vs veh, KIAA1704 /// LOC100996395 / RFU, ING1 / Fold change vs veh, ING1 / RFU, TRMT61B / Fold change vs veh, TRMT61B / RFU, FUBP3 / Fold change vs veh, FUBP3 / RFU, TP53 / Fold change vs veh, TP53 / RFU, TNKS2 / Fold change vs veh, TNKS2 / RFU, ZFP14 / Fold change vs veh, ZFP14 / RFU, ACTR2 / Fold change vs veh, ACTR2 / RFU, PPP3R1 / Fold change vs veh, PPP3R1 / RFU, PIK3R1 / Fold change vs veh, PIK3R1 / RFU, HNRNPA1 / Fold change vs veh, HNRNPA1 / RFU, RNF170 / Fold change vs veh, RNF170 / RFU, ZNF28 / Fold change vs veh, ZNF28 / RFU, RNGTT / Fold change vs veh, RNGTT / RFU, OGT / Fold change vs veh, OGT / RFU, BRD1 / Fold change vs veh, BRD1 / RFU, MARS / Fold change vs veh, MARS / RFU, ZNF655 / Fold change vs veh, ZNF655 / RFU, FAHD1 / Fold change vs veh, FAHD1 / RFU, BDP1 / Fold change vs veh, BDP1 / RFU, LRRCC1 / Fold change vs veh, LRRCC1 / RFU, ARID1A / Fold change vs veh, ARID1A / RFU, ZNF146 / Fold change vs veh, ZNF146 / RFU, ZNF330 / Fold change vs veh, ZNF330 / RFU, GPN3 / Fold change vs veh, GPN3 / RFU, C9orf123 / Fold change vs veh, C9orf123 / RFU, N4BP2L2 / Fold change vs veh, N4BP2L2 / RFU, ARFIP1 / Fold change vs veh, ARFIP1 / RFU, FAM179B / Fold change vs veh, FAM179B / RFU, BCL10 / Fold change vs veh, BCL10 / RFU, UHRF1BP1L / Fold change vs veh, UHRF1BP1L / RFU, BET1 / Fold change vs veh, BET1 / RFU, CNOT2 / Fold change vs veh, CNOT2 / RFU, ZNF268 / Fold change vs veh, ZNF268 / Fold change vs veh, ZNF507 / RFU, DGCR2 / Fold change vs veh, DGCR2 / RFU, WDSUB1 / Fold change vs veh, WDSUB1 / Fold change vs veh, HSP90B1 /// MIR3652 / RFU, ADSS / Fold change vs veh, ADSS / RFU, GK / Fold change vs veh, GK / RFU, ZNF148 / Fold change vs veh, ZNF148 / RFU, TAF9 / Fold change vs veh, TAF9 / RFU, SLC1A5 / Fold change vs veh, SLC1A5 / RFU, SLMO2 / Fold change vs veh, SLMO2 / RFU, ABCC4 / Fold change vs veh, ABCC4 / RFU, LOC101060439 /// RAP1B / Fold change vs veh, LOC101060439 /// RAP1B / RFU, RFX7 / Fold change vs veh, RFX7 / RFU, GTPBP10 / Fold change vs veh, GTPBP10 / RFU, CNEP1R1 / Fold change vs veh, CNEP1R1 / RFU, BIVM-ERCC5 /// ERCC5 / Fold change vs veh, BIVM-ERCC5 /// ERCC5 / RFU, ILF3 / Fold change vs veh, ILF3 / RFU 11762660_at / Fold change /veh 11762660_at / RFU VCAN (11757783_s_at) / Fold change /veh VCAN (11757783_s_at) / RFU DDX43 (11728927_at) / Fold change /veh DDX43 (11728927_at) / RFU KRT8 (11758188_x_at) / Fold change /veh KRT8 (11758188_x_at) / RFU NKD1 (11759106_at) / Fold change /veh NKD1 (11759106_at) / RFU SRD5A1 (11742802_a_at) / Fold change /veh SRD5A1 (11742802_a_at) / RFU TPSAB1 /// TPSB2 (11721975_s_at) / Fold change /veh TPSAB1 /// TPSB2 (11721975_s_at) / RFU GSTM3 (11746129_a_at) / Fold change /veh GSTM3 (11746129_a_at) / RFU IL23R (11737362_x_at) / Fold change /veh IL23R (11737362_x_at) / RFU TMEM51 (11727254_a_at) / Fold change /veh TMEM51 (11727254_a_at) / RFU PIWIL2 (11732686_x_at) / Fold change /veh PIWIL2 (11732686_x_at) / RFU ORM1 (11744905_x_at) / Fold change /veh ORM1 (11744905_x_at) / RFU CCDC152 (11743942_at) / Fold change /veh CCDC152 (11743942_at) / RFU ECM1 (11717891_a_at) / Fold change /veh ECM1 (11717891_a_at) / RFU IL23R (11748794_a_at) / Fold change /veh IL23R (11748794_a_at) / RFU TNFAIP8L3 (11732012_x_at) / Fold change /veh TNFAIP8L3 (11732012_x_at) / RFU MBOAT4 (11741988_at) / Fold change /veh MBOAT4 (11741988_at) / RFU 11764193_at / Fold change /veh 11764193_at / RFU TMEM53 (11763286_at) / Fold change /veh TMEM53 (11763286_at) / RFU MAGEB2 (11727129_at) / Fold change /veh MAGEB2 (11727129_at) / RFU TMEM200A (11744735_a_at) / Fold change /veh TMEM200A (11744735_a_at) / RFU CCDC152 (11751479_a_at) / Fold change /veh CCDC152 (11751479_a_at) / RFU FAM211A (11726209_a_at) / Fold change /veh FAM211A (11726209_a_at) / RFU RGS16 (11746705_a_at) / Fold change /veh RGS16 (11746705_a_at) / RFU VCAN (11755009_s_at) / Fold change /veh VCAN (11755009_s_at) / RFU RHOB (11743442_s_at) / Fold change /veh RHOB (11743442_s_at) / RFU RGS16 (11720943_a_at) / Fold change /veh RGS16 (11720943_a_at) / RFU RGS16 (11720944_at) / Fold change /veh RGS16 (11720944_at) / RFU, VPS4B / Fold change vs veh, VPS4B / RFU, CREB1 / Fold change vs veh, CREB1 / RFU, DNAJC13 / Fold change vs veh, DNAJC13 / RFU, GNAQ / Fold change vs veh, GNAQ / RFU, CDK5R1 / Fold change vs veh, CDK5R1 / RFU, ZRANB3 / Fold change vs veh, ZRANB3 / RFU, CUL4A / Fold change vs veh, CUL4A / RFU, CCNY / Fold change vs veh, CCNY / RFU, UFL1 / Fold change vs veh, UFL1 / RFU, COG3 / Fold change vs veh, COG3 / RFU, DIAPH2 / Fold change vs veh, DIAPH2 / RFU, SKA2 / Fold change vs veh, SKA2 / RFU, AFF3 / Fold change vs veh, AFF3 / RFU, LMF1 / Fold change vs veh, LMF1 / RFU, IPO11 / Fold change vs veh, IPO11 / RFU, DFFB / Fold change vs veh, DFFB / RFU, FOXP1 / Fold change vs veh, FOXP1 / RFU, CARD8 / Fold change vs veh, CARD8 / RFU, STRN3 / Fold change vs veh, STRN3 / RFU, ADK / Fold change vs veh, ADK / RFU, RASSF2 / Fold change vs veh, RASSF2 / RFU, WIPF1 / Fold change vs veh, WIPF1 / RFU, LARP1B / Fold change vs veh, LARP1B / RFU, RASA1 / Fold change vs veh, RASA1 / RFU, RB1 / Fold change vs veh, RB1 / RFU, PPFIA1 / Fold change vs veh, PPFIA1 / RFU, MAT2A / Fold change vs veh, MAT2A / RFU, CCT5 / Fold change vs veh, CCT5 / RFU, WDR92 / Fold change vs veh, WDR92 / RFU, CUX1 / Fold change vs veh, CUX1 / RFU, TTC7A / Fold change vs veh, TTC7A / RFU, TMEM135 / Fold change vs veh, TMEM135 / RFU, DEPTOR / Fold change vs veh, DEPTOR / RFU, CPM / Fold change vs veh, CPM / RFU, DNAJB6 / Fold change vs veh, DNAJB6 / RFU, CACNA2D3 / Fold change vs veh, CACNA2D3 / RFU, DTX4 / Fold change vs veh, DTX4 / RFU, TFCP2 / Fold change vs veh, TFCP2 / RFU, GMCL1 /// GMCL1P1 / Fold change vs veh, GMCL1 /// GMCL1P1 / RFU, AEBP2 / Fold change vs veh, AEBP2 / RFU, SNHG1 /// SNORD22 /// SNORD25 /// SNORD26 /// SNORD27 /// SNORD28 /// SNORD29 /// SNORD31 / Fold change vs veh, SNHG1 /// SNORD22 /// SNORD25 /// SNORD26 /// SNORD27 /// SNORD28 /// SNORD29 /// SNORD31 / Fold change (Aza/veh), C12orf56 (ProbeSet 11735607_a_at) / Fold change (ACY-1035/veh), C12orf56 (ProbeSet 11735607_a_at) / Fold change (Aza/veh), FGFR1OP (ProbeSet 11751329_s_at) / Fold change (ACY-1035/veh), FGFR1OP (ProbeSet 11751329_s_at) / Fold change (Aza/veh), VPS36 (ProbeSet 11739960_a_at) / Fold change (ACY-1035/veh), VPS36 (ProbeSet 11739960_a_at) / RFU SYPL1 (11715823_x_at) / Fold change /veh SYPL1 (11715823_x_at) / RFU IGFBP7 (11715501_s_at) / Fold change /veh IGFBP7 (11715501_s_at) / RFU REEP3 (11722064_at) / Fold change /veh REEP3 (11722064_at) / RFU IGLL1 (11728026_x_at) / Fold change /veh IGLL1 (11728026_x_at): dose or concentration left out as unconfirmed. The conditions noted are these: MV-4-11 cells, 48 hours.

As for `Nc1ccc(-c2cccs2)cc1NC(=O)c1ccc2c(c1)cc(C1CC1)n2CCN1CCOCC1` [ACY-1035], the “Fold change /veh FAM26E (11764081_at)” value came out at 0.88.
